Broadly, the IC50 is the concentration that gives 50% inhibition. A low value points to inhibition by little substance.

SMILES strings stand for the structures. Converted amounts (≈) assume the structure as drawn.

The text below walks through data of ChEMBL document CHEMBL1158770, “Cladionol A, a polyketide glycoside from marine-derived fungus Gliocladium species” (J Nat Prod, 2005).

One test has as its system KB. Kind of test: Cytotoxicity against human KB cells. In kind it is functional, cell-based.
Another test has as its system L1210. Kind of test: Cytotoxicity against mouse L1210 cells. In kind it is functional, cell-based.

As to `CCC(C)CC(C)CC(C)C(O[C@@H]1O[C@H](C(=O)OC)[C@@H](O)[C@H](O)[C@@H]1O)C(C)/C=C(\C)C(O)C(C)/C=C(\C)C(O)C(C)/C=C(\C)[C@H](O)[C@@H](C)C(=O)OC[C@H](O)[C@@H](O)[C@@H](O)CO` (some centres not stated) [CLADIONOL A], the results for the IC50 in the test on KB and with L1210 were 7 µg/mL (≈ 8.11 µM) and 5 µg/mL (≈ 5.79 µM), respectively.
